From patent publication US20210267193A1, “Pest Repellent Agent” (Kao Corporation, priority 2018, published 2021)

Experiments:
Aedes albopictus [1] = test: Mosquito landing rate using human forearm; assay type: in vivo; conditions: 4 cm x 5 cm test site, 5 mg (0.25 mg/cm^2), about 50 mosquitoes, 28° C., 70% RH
Procedure: (4) Evaluation of Mosquito Landing Rate Using Human Forearm
The repellent effect of the pest repellent on human forearm was evaluated in terms of a mosquito landing rate.
(4-1) Preparation of Aedes albopictus
Female adults of Aedes albopictus were purchased from Mostop Inc. The adults were bred in a room at 28° C. and a relative humidity of 70% RH with a 12-hour light/dark cycle after delivery and appropriately used for tests. During breeding of mosquitoes, a 3% by mass sucrose aqueous solution was given as a feed. In order to facilitate the induction to the forearm, before the test, the food was changed to water, and the mosquitoes were fasted for 12 hours or more.
(4-2) Calculation of Landing Rate
The forearm was washed with a body wash (Biore u, manufactured by Kao Corporation), and water droplets were wiped off with a paper towel, followed by performing acclimatization for 10 minutes at room temperature. Thereafter, a rubber glove (Singer Latex Long Glove M, manufactured by Utsunomiya Seisakusho Co., Ltd.) covering up to the elbow was put on the arm to be measured. The mosquito cannot bite through the rubber glove.
The rubber glove was cut off with scissors to expose a test site of 4 cm×5 cm toward the inside of the forearm. The area around the opening of the rubber glove is reinforced with a pressure-sensitive adhesive tape. Then, the resultant was moved to a constant temperature and constant humidity room (28° C., relative humidity: 70%), followed by performing acclimatization for 3 minutes. 5 mg (0.25 mg/cm^2) of the repellent was applied on the test site with a finger wearing the rubber glove, and immediately thereafter, the arm was inserted into a test box (Bug Dorm-1, manufactured by MegaView Science Co., Ltd., 30 cm×30 cm×30 cm). Approximately 50 test mosquitoes are released in this test box. The mosquito stays on the skin and then begins to bite by placing a needle on the skin. In order to prevent blood sucking into the forearm, mosquitoes are removed by using an inset suction pipe passed through a hole into which the arm is inserted just before starting biting. The measurement was terminated at the time when the total number of mosquitoes that succeeded in landing (reached just before the start of biting) and mosquitoes that touched the skin but escaped without landing reached 15. […] The mosquito landing rate was calculated by the following equation. […]
Each of the liquid oily components shown in Table 4 was applied onto the test site of the human forearm at a coverage of 0.25 mg/cm^2, and the mosquito landing rate on the applied surface of the forearm was calculated.

[2] = Measurement of viscosity (B-type rotational viscometer); assay type: physicochemical; conditions: rotor M2 (12 or 6 rpm) or L adapter (30 rpm) as listed per sample
Procedure: (2) Measurement of Viscosity
Viscometer TVB-10, manufactured by […] Co., Ltd. was used as a B-type rotational viscometer according to JIS K7117-1:1999. As to components to be measured, a viscosity value greatly differs for every sample, and therefore, it is difficult to accurately measure all components under a single measurement condition. Then, the measurement was performed using two types of rotors. The viscosity was first measured at a rotational speed of 12 rpm using a rotor M2 in an environment at 23° C. At this time, the component having a viscosity of 2,500 mPa·s or more was again measured at a rotational speed of 6 rpm, to obtain the viscosity value.
On the other hand, the component having a viscosity of 20 mPa·s or less was again measured at a rotational speed of 30 rpm using an L adapter that is a rotor for low viscosity in an environment of 23° C., to obtain the viscosity value.

Aedes albopictus [3] = test: Mosquito landing rate on replica skin substrate applied with repellent; assay type: in vivo; conditions: for Landing rate (at 0.25 mg/cm^2): coverage 0.25 mg/cm^2 on polyurethane replica skin substrate
Procedure: (3) Mosquito Landing Rate
The repellent effect of the pest repellent was evaluated in terms of a mosquito landing rate.
(3-1) Preparation of Aedes albopictus
Female adults of Aedes albopictus were purchased from Mostop Inc. The adults were bred in a room at 28° C. and a relative humidity of 70% RH with a 12-hour light/dark cycle after delivery and appropriately used for tests. During breeding of mosquitoes, a 3% by mass sucrose aqueous solution was given as a feed.
(3-3) Calculation of Mosquito Landing Rate
The mosquito landing rate was determined by applying a repellent onto the aforementioned replica skin substrate in the manner as mentioned below to form a substrate surface, counting the number of mosquitoes landed on the substrate surface, and calculating the mosquito landing rate on the applied surface. This replica skin substrate is a disk having a diameter of 5 cm. Here, the term “landed” means that the mosquito stayed on the replica skin substrate for at least one second.
Four replica skin substrates were prepared, two of which were uniformly applied with a repellent with a fingertip wearing a rubber glove, and the other two were not applied with the repellent. Thereafter, the four substrates were vertically mounted in a glass box having a length, a width, and a height of about 6 cm on each side, such that the applied surface was located inside the boxy. This box has a circular hole with a diameter of 4 cm in the vertical and horizontal directions when viewed from the top, and by setting the aforementioned substrate, a part of the inner wall surface of the box can be made as the substrate surface. Two adjacent surfaces among the four surfaces of the inner wall of the box were set as substrates onto which the repellent was applied.
Four mosquitoes were enclosed in the glass-made box, and a shock was applied to force the mosquitoes to fly, thereby recording on what surface they first landed within 10 seconds. This was repeated 20 times, and the mosquito landing rate on the applied surface was calculated by the following equation.
Mosquito landing rate on applied surface (%)={(Number of mosquitoes landed on two surfaces of replica skin substrates applied with repellent)/(Number of mosquitoes landed on any of four surfaces of replica skin substrates)}×100
In the case of repeating the aforementioned test, fresh unused mosquitoes were used for every test, and the landing rate was calculated as an average.
It is expressed that as the landing rate is lower, the staying of mosquitoes can be suppressed, and the repellent effect is excellent.
In Comparative Example 2, a frosted glass-made substrate (Tempax #240, manufactured by Cosmode Co., Ltd.) was used in place of the replica skin substrate.
The liquid oily component shown in Table 1 was prepared, and the liquid oily component shown in Table 2 was uniformly applied onto the aforementioned replica skin substrate at a coverage of 0.5 mg/cm^2, and the mosquito landing rate was calculated.
In Example 1, each of the liquid oily components shown in Table 3 was uniformly applied onto the replica shin substrate at a coverage of 0.25 mg/cm^2, and the mosquito landing rate was calculated.

[4] = Measurement of surface tension (Wilhelmy method, Tensiometer K100); assay type: physicochemical; conditions: static surface tension, platinum plate
Procedure: (1) Measurement of Surface Tension
An automatic surface tensiometer: Tensiometer K100 (manufactured by KRUSS GmbH) was used to measure the static surface tension by the Wilhelmy method using a platinum plate in an environment at 25° C.

pests = conditions: content in the pest repellent composition; existing pest repellents; cited from earlier work
[5] = lower = better repellent effect
[6] = coverage 0.5 mg/cm^2 on polyurethane replica skin substrate, stay of at least 1 second counts as landed, lower = better repellent effect

Compound	Viscosity (at 23° C.) [2] [mPa · s]	Surface tension (at 25° C.) [4] [mN/m]	Landing rate on exposed area (at 0.25 mg/cm^2) (Aedes albopictus [1]) [%]	Landing rate (at 0.25 mg/cm^2) (Aedes albopictus [3]; [5]) [%]	Landing rate (at 0.5 mg/cm^2) (Aedes albopictus [3]; [6]) [%]	effective amount (pests) [% by mass]	Landing rate (at 0.5 mg/cm^2) (Aedes albopictus [3]; coverage 0.5 mg/cm^2 on frosted glass-made substrate (Tempax #240) in place of replica skin substrate) [%]
CC(C)=CCCC(C)CCO (centres unmarked) [citronellol]	–	–	–	–	–	≥ 10	–
CCN(CC)C(=O)c1cccc(C)c1 [DEET, N,N-diethyl-m-toluamide]	–	–	–	–	–	≥ 4	–
CCCCCCCCCCC(CO)CCCCCCCC (centres unmarked) [Higher alcohol e1, 2-Octyl dodecanol]	74	29	–	16	–	–	–
OCCCO [Polyhydric alcohol fx1, 1,3-Propanediol, reference compound]	53	48	–	–	–	–	39
CCCCCCCCCCCCCCCCOC(C)CC(C)C (centres unmarked) [Ether oil c1, Cetyl-1,3-dimethylbutyl ether]	7	28	15	–	13	–	–
CCC(C)OC(=O)N1CCCCC1CCO (centres unmarked) [Icaridin]	–	–	–	–	–	≥ 5	–

Second part, led by results:

Viscosity (at 23° C.) [2] [mPa · s]	Surface tension (at 25° C.) [4] [mN/m]	Compound	Landing rate on exposed area (at 0.25 mg/cm^2) (Aedes albopictus [1]) [%]	Landing rate (at 0.25 mg/cm^2) (Aedes albopictus [3]; [5]) [%]	Landing rate (at 0.5 mg/cm^2) (Aedes albopictus [3]; [6]) [%]	effective amount (pests) [% by mass]	Landing rate (at 0.5 mg/cm^2) (Aedes albopictus [3]; coverage 0.5 mg/cm^2 on frosted glass-made substrate (Tempax #240) in place of replica skin substrate) [%]
5	28	CCCCCCCCCCCCCC(=O)OC(C)C [Ester oil b5, Isopropyl myristate]	24	11	11	–	–
6	25	CC(C)CCCCCCOC(=O)CCCCCC(C)C [Ester oil b1, Isononyl isononanoate]	–	–	22	–	–
1000	27	Polyglyceryl diisostearate [Ester oil bx1]	–	–	21	–	–
42	30	CC(C)=CCC/C(C)=C/CC/C(C)=C/CC/C=C(\C)CC/C=C(\C)CCC=C(C)C [Hydrocarbon oil d3, Squalene]	12	–	21	–	–
7	27	CCCCCCCCCCCCCCCC(=O)OC(C)C [Ester oil b4, Isopropyl palmitate]	–	–	19	–	–
–	28	CCCCC(CC)C(=O)OCC(C)(C)COC(=O)C(CC)CCCC (centres unmarked) [Ester oil b3, Neopentyl glycol di-2-ethylhexanoate]	–	–	12	–	–
–	65	OCC(O)CO [Polyhydric alcohol fx2, Glycerin, reference compound]	75	–	–	–	–
11	28	CC(C)CCCCCCCCCCOC(=O)CCCCCC(C)C [Ester oil b2, Isotridecyl isononanoate]	–	–	15	–	–
15	28	CCCCCCCCCC(=O)OCC(C)(C)COC(=O)CCCCCCCCC [Ester oil b6, Neopentyl glycol dicaprate]	–	–	20	–	–
